Read-outs that look alike come from different tables or passages of the source.
Tests used:
[1] = target: T1, HCV NS3/4A protease complex, BMS strain (UniProt P27958, species not given/STRAIN_BMS); experiment: FRET peptide assay to monitor HCV NS3/4A proteolytic activity (BMS strain); type: biochemical, Hepatitis C virus (genotype 1a)
T1 construct: other: NS3/4A BMS strain; activity range class; numeric values, unit not given; said of H77 and J4L6S; fused on or other part: A three-lysine solubilising tail at the C-terminus of NS4A; A His tag is implied by the pET21b vector and Ni-NTA purification; Both are printed for the H77 and J4L6S constructs and apply to BMS by inference
In short: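 Inhibition measured by real-time fluorescence increase as the protease cleaves RET S1 FRET depsipeptide (2 μM final). Enzyme: >90% pure BMS-strain (1a) NS3/4A at 2-3 nM final, or 300 pM with 50 μg/ml BSA for potent compounds. Buffer: 50 mM HEPES pH 7.5, 0.15 M NaCl, 0.1% Triton, 15% glycerol, 10 mM βME.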

[2] = system: HCV replicon (strain 1b) in HUH-7 cells; experiment: HCV replicon FRET assay; type: cell-based, Hepatitis C virus
[3] = read-out: HCV Protease (IC50); NS3/4A BMS strain; numeric values, unit inferred
[4] = Hepatitis C virus, Huh-7, read-out: HCV Pro Replicon (EC50), HCV replicon cell assay, numeric values, unit inferred
[5] = read-out: HCV Protease (IC50); NS3/4A BMS strain; activity range class
[6] = Hepatitis C virus, Huh-7, read-out: HCV Pro Replicon (EC50), HCV replicon cell assay, activity range class
[7] = read-out: HCV Pro Replicon (EC50), HCV replicon cell assay, activity range class

T1 sequence (P27958 1027-1657, change not shown, one chain of several): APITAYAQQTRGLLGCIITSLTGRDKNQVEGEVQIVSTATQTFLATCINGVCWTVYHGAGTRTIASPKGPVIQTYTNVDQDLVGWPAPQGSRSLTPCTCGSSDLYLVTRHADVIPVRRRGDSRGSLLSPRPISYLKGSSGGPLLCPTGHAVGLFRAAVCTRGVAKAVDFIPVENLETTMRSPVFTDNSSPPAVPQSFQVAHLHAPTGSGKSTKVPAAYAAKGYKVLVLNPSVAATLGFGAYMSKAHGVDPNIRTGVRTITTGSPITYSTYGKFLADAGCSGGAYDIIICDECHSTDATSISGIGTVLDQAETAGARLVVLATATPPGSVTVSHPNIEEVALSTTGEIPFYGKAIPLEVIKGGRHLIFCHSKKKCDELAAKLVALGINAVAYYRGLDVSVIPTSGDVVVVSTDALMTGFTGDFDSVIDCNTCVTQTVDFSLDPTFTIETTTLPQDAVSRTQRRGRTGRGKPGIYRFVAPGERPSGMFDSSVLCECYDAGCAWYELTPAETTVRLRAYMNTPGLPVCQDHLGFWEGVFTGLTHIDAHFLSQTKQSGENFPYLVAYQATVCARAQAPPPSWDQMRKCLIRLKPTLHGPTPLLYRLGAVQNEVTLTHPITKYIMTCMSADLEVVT

`C=C[C@@H]1C[C@]1(NC(=O)[C@@H]1C[C@@H](Oc2ncc(OC)c3ccc(Cl)cc23)CN1C(=O)[C@@H](Nc1cncc(Cl)c1)C(C)(C)C)C(=O)NS(=O)(=O)C1CC1` [Compound 33, N-(5-chloro-3-pyridinyl)-3-methylvalyl-(4R)-4-((7-chloro-4-methoxy-1-isoquinolinyl)oxy)-N-((1R,2S)-1-((cyclopropylsulfonyl)carbamoyl)-2-vinylcyclopropyl)-L-prolinamide] gave an IC50 [1, 3] of 0.002 µM and an EC50 [2, 4] of 0.00819 µM.

With `C=C[C@@H]1C[C@]1(NC(=O)[C@@H]1C[C@@H](Oc2ncc(OC)c3ccc(Cl)cc23)CN1C(=O)[C@H](Nc1ccc(C(=O)O)cc1)C(C)(C)C)C(=O)NS(=O)(=O)C1CC1` [209 second isomer, N-(4-carboxyphenyl)-3-methyl-D-valyl-(4R)-4-((7-chloro-4-methoxy-1-isoquinolinyl)oxy)-N-((1R,2S)-1-((cyclopropylsulfonyl)carbamoyl)-2-vinylcyclopropyl)-L-prolinamide] the IC50 [1, 5] was > 0.2 µM and the EC50 [2, 6] was > 1 µM.

Compound `C=C[C@@H]1C[C@]1(NC(=O)[C@@H]1C[C@@H](Oc2nccc3cc(OC)ccc23)CN1C(=O)C(Nc1ccc(OC)nc1)C(C)(C)C)C(=O)NS(=O)(=O)C1CC1` (single isomer, unassigned) [407 second isomer] has an IC50 [1, 5] of 0.0006 to 0.02 µM and an EC50 [2, 7] of 0.1 to 1 µM.

With `C=C[C@@H]1C[C@]1(NC(=O)[C@@H]1C[C@@H](Oc2nc3c(c4cc(OC)ccc24)OCCN3C)CN1C(=O)[C@H](Nc1ccc(F)c(F)c1)C(C)(C)C)C(=O)NS(=O)(=O)C1CC1` [235 second isomer, N-(3,4-difluorophenyl)-3-methyl-D-valyl-(4R)—N-((1R,2S)-1-((cyclopropylsulfonyl)carbamoyl)-2-vinylcyclopropyl)-4-((9-methoxy-4-methyl-3,4-dihydro-2H-[1,4]oxazino[3,2-c]isoquinolin-6-yl)oxy)-L-prolinamide] the IC50 [1, 5] was 0.0006 to 0.02 µM and the EC50 [2, 6] was 0.003 to 0.1 µM.

`C=C[C@@H]1C[C@]1(NC(=O)[C@@H]1C[C@@H](Oc2ncc(OC)c3ccc(Cl)cc23)CN1C(=O)C(Nc1cccc(C(=O)NC)c1)C(C)(C)C)C(=O)NS(=O)(=O)C1CC1` (stereo partly shown) [Compound 202A] gave an IC50 [1, 5] of 0.0006 to 0.02 µM and an EC50 [2, 6] of 0.003 to 0.1 µM.

For `C=C[C@@H]1C[C@]1(NC(=O)[C@@H]1C[C@@H](Oc2ncc(OC)c3ccc(Cl)cc23)CN1C(=O)[C@H](Nc1cccc(C(=O)NC(C)(C)C)c1)C(C)(C)C)C(=O)NS(=O)(=O)C1CC1` [212 second isomer, N-(3-(tert-butylcarbamoyl)phenyl)-3-methyl-D-valyl-(4R)-4-((7-chloro-4-methoxy-1-isoquinolinyl)oxy)-N-((1R,2S)-1-((cyclopropylsulfonyl)carbamoyl)-2-vinylcyclopropyl)-L-prolinamide], the IC50 [1, 5] was 0.0006 to 0.02 µM and the EC50 [2, 6] was 0.003 to 0.1 µM.

Work on `C=C[C@@H]1C[C@]1(NC(=O)[C@@H]1C[C@@H](Oc2ncc(OC)c3ccc(Cl)cc23)CN1C(=O)C(Nc1cncnc1)C(C)C)C(=O)NS(=O)(=O)C1CC1` (single isomer, unassigned) [Compound 24A] yielded an IC50 [1, 3] of 0.026 µM and an EC50 [2, 4] of 0.593 µM.

In the case of `C=C[C@@H]1C[C@]1(NC(=O)[C@@H]1C[C@@H](Oc2ncc(OC)c3ccc(Cl)cc23)CN1C(=O)[C@H](Nc1ccccc1F)C(C)(C)C)C(=O)NS(=O)(=O)C1CC1` [234 second isomer, N-(2-fluorophenyl)-3-methyl-D-valyl-(4R)-4-[(7-chloro-4-methoxy-1-isoquinolinyl)oxy]-N-((1R,2S)-1-{[(cyclopropylsulfonyl)amino]carbonyl}-2-vinylcyclopropyl)-L-prolinamide], the IC50 [1, 5] is reported as > 0.2 µM and the EC50 [2, 6] is reported as > 1 µM.

`C=C[C@@H]1C[C@]1(NC(=O)[C@@H]1C[C@@H](Oc2nccc3cc(OC)ccc23)CN1C(=O)C(Nc1ccc(C(F)(F)F)cn1)C(C)C)C(=O)NS(=O)(=O)C1CC1` (single isomer, unassigned) [Compound 2] gave an IC50 [1, 5] of 0.02 to 0.2 µM and an EC50 [2, 6] of 0.1 to 1 µM.

With `C=C[C@@H]1C[C@]1(NC(=O)[C@@H]1C[C@@H](Oc2ncc(OC)c3ccc(Cl)cc23)CN1C(=O)C(Nc1cc(Cl)cc(Cl)n1)C(C)(C)C)C(=O)NS(=O)(=O)C1CC1` (single isomer, unassigned) [Compound 32A] the IC50 [1, 3] was 0.001 µM and the EC50 [2, 4] was 0.00359 µM.

`C=C[C@@H]1C[C@]1(NC(=O)[C@@H]1C[C@@H](Oc2ncc(OC)c3ccc(Cl)cc23)CN1C(=O)[C@H](Nc1ccc(S(=O)(=O)NCC)cc1)C(C)(C)C)C(=O)NS(=O)(=O)C1CC1` [223 second isomer, N-(4-(ethylsulfamoyl)phenyl)-3-methyl-D-valyl-(4R)-4-((7-chloro-4-methoxy-1-isoquinolinyl)oxy)-N-((1R,2S)-1-((cyclopropylsulfonyl)carbamoyl)-2-vinylcyclopropyl)-L-prolinamide] was tested, and the IC50 [1, 5] was > 0.2 µM and the EC50 [2, 6] was > 1 µM.

For `C=C[C@@H]1C[C@]1(NC(=O)[C@@H]1C[C@@H](Oc2ncc(OC)c3ccc(Cl)cc23)CN1C(=O)C(Nc1ccc(C(=O)OC(C)(C)C)cc1)C(C)(C)C)C(=O)NS(=O)(=O)C1CC1` (stereo partly drawn) [204 second isomer], the IC50 [1, 5] was > 0.2 µM and the EC50 [2, 7] was > 1 µM.

In the case of `C=C[C@@H]1C[C@]1(NC(=O)[C@@H]1C[C@@H](Oc2ncc(OC)c3ccc(Cl)cc23)CN1C(=O)C(CC)Nc1nsnc1OC)C(=O)CS(=O)(=O)C1CC1` (stereo partly shown) [Compound 241], the IC50 [1, 5] is reported as > 0.2 µM and the EC50 [2, 6] is reported as > 1 µM.

With `C=C[C@@H]1C[C@]1(NC(=O)[C@@H]1C[C@@H](Oc2ncc(OC)c3ccc(Cl)cc23)CN1C(=O)C(C)Nc1n[s+]([O-])nc1OCC)C(=O)NS(=O)(=O)C1CC1` (stereo partly shown) [Compound 237] the IC50 [1, 5] was > 0.2 µM and the EC50 [2, 6] was > 1 µM.

Work on `C=C[C@@H]1C[C@]1(NC(=O)[C@@H]1C[C@@H](Oc2nccc3cc(OC)ccc23)CN1C(=O)[C@H](Nc1cccnc1)C(C)(C)C)C(=O)NS(=O)(=O)C1CC1` [Compound 13B, 3-methyl-N-3-pyridinyl-D-valyl-(4R)—N-((1R,2S)-1-((cyclopropylsulfonyl)carbamoyl)-2-vinylcyclopropyl)-4-((6-methoxy-1-isoquinolinyl)oxy)-L-prolinamide] yielded an IC50 [1, 3] of 1.2 µM and an EC50 [2, 4] of 5.74 µM.

Work on `C=C[C@@H]1C[C@]1(NC(=O)[C@@H]1C[C@@H](Oc2ncc(OC)c3ccc(Cl)cc23)CN1C(=O)[C@@H](Nc1cccc(C(=O)NC(C)(C)c2ccccc2)c1)C(C)(C)C)C(=O)NS(=O)(=O)C1CC1` (single isomer, unassigned; isomer 3) [216 first isomer] yielded an IC50 ([1]; NS3/4A BMS strain; activity range class; read-out: HCV Protease (IC50)) of 0.0006 to 0.02 µM and an EC50 ([2]; HCV replicon cell assay, activity range class, read-out: HCV Pro Replicon (EC50)) of 0.003 to 0.1 µM.

`C=C[C@@H]1C[C@]1(NC(=O)[C@@H]1C[C@@H](Oc2ncc(OC)c3ccc(Cl)cc23)CN1C(=O)[C@@H](Nc1ccc(S(N)(=O)=O)cc1)C(C)(C)C)C(=O)NS(=O)(=O)C1CC1` [Compound 215A, 3-methyl-N-(4-sulfamoylphenyl)-L-valyl-(4R)-4-((7-chloro-4-methoxy-1-isoquinolinyl)oxy)-N-((1R,2S)-1-((cyclopropylsulfonyl)carbamoyl)-2-vinylcyclopropyl)-L-prolinamide] was tested, and the IC50 [1, 5] was 0.0006 to 0.02 µM and the EC50 [2, 6] was 0.003 to 0.1 µM.

In the case of `C=C[C@@H]1C[C@]1(NC(=O)[C@@H]1C[C@@H](Oc2ncc(OC)c3ccc(Cl)cc23)CN1C(=O)C(Nc1cccc(C)n1)C(C)(C)C)C(=O)NS(=O)(=O)C1CC1` (single isomer, unassigned) [28 first isomer], the IC50 [1, 5] is reported as 0.0006 to 0.02 µM and the EC50 [2, 7] is reported as 0.003 to 0.1 µM.

`C=C[C@@H]1C[C@]1(NC(=O)[C@@H]1C[C@@H](Oc2ncc(OC)c3ccc(Cl)cc23)CN1C(=O)C(Nc1cc(C)cc(C)n1)C(C)(C)C)C(=O)NS(=O)(=O)C1CC1` (single isomer, unassigned) [22 first isomer] was tested, and the IC50 [1, 5] was 0.0006 to 0.02 µM and the EC50 [2, 7] was 0.003 to 0.1 µM.

Compound `C=C[C@@H]1C[C@]1(NC(=O)[C@@H]1C[C@@H](Oc2ncc(OC)c3ccc(Cl)cc23)CN1C(=O)[C@@H](Nc1cccc(C(=O)N(C)C)c1)C(C)(C)C)C(=O)NS(=O)(=O)C1CC1` [218 first isomer, N-(3-(dimethylcarbamoyl)phenyl)-3-methyl-L-valyl-(4R)-4-((7-chloro-4-methoxy-1-isoquinolinyl)oxy)-N-((1R,2S)-1-((cyclopropylsulfonyl)carbamoyl)-2-vinylcyclopropyl)-L-prolinamide] has an IC50 [1, 5] of 0.0006 to 0.02 µM and an EC50 [2, 6] of 0.003 to 0.1 µM.

For `C=C[C@@H]1C[C@]1(NC(=O)[C@@H]1C[C@@H](Oc2ncc(OC)c3ccc(Cl)cc23)CN1C(=O)[C@H](Nc1ccc(C(=O)N(C)C)cc1)C(C)(C)C)C(=O)NS(=O)(=O)C1CC1` [221 second isomer, N-(4-(dimethylcarbamoyl)phenyl)-3-methyl-D-valyl-(4R)-4-((7-chloro-4-methoxy-1-isoquinolinyl)oxy)-N-((1R,2S)-1-((cyclopropylsulfonyl)carbamoyl)-2-vinylcyclopropyl)-L-prolinamide], the IC50 [1, 5] was 0.02 to 0.2 µM and the EC50 [2, 6] was > 1 µM.

`C=C[C@@H]1C[C@]1(NC(=O)[C@@H]1C[C@@H](Oc2ncc(OC)c3ccc(Cl)cc23)CN1C(=O)C(Nc1cc(C)nc(C)c1)C(C)(C)C)C(=O)NS(=O)(=O)C1CC1` (single isomer, unassigned) [Compound 29A] was tested, and the IC50 [1, 5] was 0.0006 to 0.02 µM and the EC50 [2, 6] was 0.1 to 1 µM.

Compound `C=C[C@@H]1C[C@]1(NC(=O)[C@@H]1C[C@@H](Oc2ncc(OC)c3ccc(Cl)cc23)CN1C(=O)[C@@H](Nc1cccc(S(=O)(=O)NC)c1)C(C)(C)C)C(=O)NS(=O)(=O)C1CC1` [227 first isomer, 3-methyl-N-(3-(methylsulfamoyl)phenyl)-L-valyl-(4R)-4-((7-chloro-4-methoxy-1-isoquinolinyl)oxy)-N-((1R,2S)-1-((cyclopropylsulfonyl)carbamoyl)-2-vinylcyclopropyl)-L-prolinamide] has an IC50 [1, 5] of 0.0006 to 0.02 µM and an EC50 [2, 6] of 0.003 to 0.1 µM.

From US7772180B2, “Hepatitis C virus inhibitors” (Bristol-Myers Squibb Company, priority 2006, dated 2010)
